Data: patent US10105357B2, “Indication of antibiotic drugs for preparation of cancer inhibition pharmaceutical composition” (LAUNX BIOMEDICAL CO., LTD., priority 2014, dated 2018)
Where two headings read alike, the source gives them in different places.

Assays:
[1] = test system: Hep3B (hepatocellular carcinoma); assay: Cell viability analysis, hepatic cancer Hep3B; type: cell-based, human; conditions: Hep3B; for viability at 10 µM: Homo sapiens, 72 h, read-out: The results of antibiotic drug inhibiting cancer cell lines (cell viability analysis), Hep3B
[2] = test system: MCF7 (Mammary Gland, Adenocarcinoma); assay: Cell viability analysis, breast cancer MCF7; type: cell-based, human; conditions: repeated experiment; for viability at 10 µM: Homo sapiens, MCF7, 72 h
TOV-21G = assay: Cell viability analysis, ovarian cancer TOV-21G; type: cell-based, human; conditions: for viability at 10 µM: Homo sapiens, TOV21G, 72 h, read-out: The results of antibiotic drug inhibiting cancer cell lines (cell viability analysis), TOV-21G
U-2OS = assay: Cell viability analysis, osteosarcoma U-2OS; type: cell-based, human; conditions: U2OS; for viability at 10 µM: Homo sapiens, 72 h, read-out: The results of antibiotic drug inhibiting cancer cell lines (cell viability analysis), U2OS
T24 = assay: Cell viability analysis, bladder cancer T24; type: cell-based, human; conditions: for viability at 10 µM: Homo sapiens, T-24, 72 h, read-out: The results of antibiotic drug inhibiting cancer cell lines (cell viability analysis), T24
[3] = test system: MKN-45 (Gastric Adenocarcinoma); assay: Cell viability analysis, gastric cancer MKN-45; type: cell-based, human; conditions: repeated experiment; for viability at 10 µM: Homo sapiens, MKN-45, 72 h
[4] = test system: HeLa (Cervix Adenocarcinoma); assay: Cell viability analysis, cervical cancer HeLa; type: cell-based, human
[5] = test system: PC3 (p53−) (Prostate Adenocarcinoma); assay: Cell viability analysis, prostate cancer PC3; type: cell-based, human; conditions: repeated experiment; for viability at 10 µM: Homo sapiens, 72 h
[6] = test system: C-33A (Cervical carcinoma); assay: Cell viability analysis, cervical cancer C-33A; type: cell-based, human; conditions: for viability at 10 µM: Homo sapiens, 72 h, read-out: The results of antibiotic drug inhibiting cancer cell lines (cell viability analysis), C-33A
[7] = test system: LoVo (Colorectal Adenocarcinoma); assay: Cell viability analysis, colon cancer LoVo; type: cell-based, human; conditions: LoVo, repeated experiment; for viability at 10 µM: Homo sapiens, 72 h, read-out: The results of antibiotic drug inhibiting cancer cell lines (cell viability analysis), LoVo
AsPC-1 = assay: Cell viability analysis, pancreatic cancer AsPC-1; type: cell-based, human; conditions: for viability at 10 µM: Homo sapiens, ASPC1, 72 h, read-out: The results of antibiotic drug inhibiting cancer cell lines (cell viability analysis), AsPC-1
[8] = test system: TSGH-8301 (Urinary Bladder Carcinoma); assay: Cell viability analysis, bladder cancer TSGH-8301; type: cell-based, human; conditions: repeated experiment; for viability at 10 µM: Homo sapiens, 72 h
[9] = test system: A375 (Amelanotic Melanoma); assay: Cell viability analysis, skin cancer A375; type: cell-based, human; conditions: repeated experiment; for viability at 10 µM: Homo sapiens, A-375, 72 h
[10] = test system: HI650 (Lung Adenocarcinoma); assay: Cell viability analysis, lung cancer HI650; type: cell-based, human; conditions: repeated experiment; for viability at 10 µM: Homo sapiens, NCI-H1650, 72 h
[11] = test system: HCT116 (p53+) (Colorectal Carcinoma)
NIH: OVCAR-3 = assay: Cell viability analysis, ovarian cancer NIH: OVCAR-3; type: cell-based, human; conditions: for viability at 10 µM: Homo sapiens, read-out: The results of antibiotic drug inhibiting cancer cell lines (cell viability analysis), NIH-OVCAR-3
[12] = test system: BCC (basal cell carcinoma); assay: Cell viability analysis, skin cancer BCC; type: cell-based, human; conditions: for viability at 10 µM: Homo sapiens, 72 h, read-out: The results of antibiotic drug inhibiting cancer cell lines (cell viability analysis), BCC
[13] = test system: A549 (Lung Adenocarcinoma); assay: Cell viability analysis, lung cancer A549; type: cell-based, human; conditions: repeated experiment
[14] = test system: SAS (Tongue squamous cell carcinoma); assay: Cell viability analysis, tongue cancer SAS; type: cell-based, human; conditions: for viability at 10 µM: Homo sapiens, 72 h, read-out: The results of antibiotic drug inhibiting cancer cell lines (cell viability analysis), SAS
[15] = test system: HepG2 (Hepatocellular Carcinoma); assay: Cell viability analysis, hepatic cancer HepG2; type: cell-based, human; conditions: repeated experiment; for viability at 10 µM: Homo sapiens, HepG2, 72 h
[16] = test system: AGS (Gastric Adenocarcinoma); assay: Cell viability analysis, gastric cancer AGS; type: cell-based, human; conditions: repeated experiment; for viability at 10 µM: Homo sapiens, 72 h, read-out: The results of antibiotic drug inhibiting cancer cell lines (cell viability analysis), AGS
[17] = test system: 786-O (Renal adenocarcinoma); assay: Cell viability analysis, renal cancer 786-O; type: cell-based, human; conditions: for viability at 10 µM: Homo sapiens, 786-0, 72 h, read-out: The results of antibiotic drug inhibiting cancer cell lines (cell viability analysis), 786-O
BxPC-3 = assay: Cell viability analysis, pancreatic cancer BxPC-3; type: cell-based, human; conditions: for viability at 10 µM: Homo sapiens, read-out: The results of antibiotic drug inhibiting cancer cell lines (cell viability analysis), BxPC-3
[18] = test system: MDA-MB-231 (Mammary Gland, Adenocarcinoma); assay: Cell viability analysis, breast cancer MDA-MB-231; type: cell-based, human; conditions: for viability at 10 µM: Homo sapiens, MDA-MB-231, 72 h, read-out: The results of antibiotic drug inhibiting cancer cell lines (cell viability analysis), MDA-MB231

In the case of `CCCSc1ccc2[nH]c(NC(=O)OC)nc2c1` [Albendazole (Albenza)], the “The results of antibiotic drug inhibiting cancer cell lines (cell viability analysis), Hep3B” value ([1]; repeated experiment) is reported as 61.38, the “The results of antibiotic drug inhibiting cancer cell lines (cell viability analysis), MCF-7” value ([2]; MCF-7) is reported as 69.83 and the “The results of antibiotic drug inhibiting cancer cell lines (cell viability analysis), TOV-21G” value (TOV-21G; TOV-21G, repeated experiment) is reported as 29.79. For the same compound, the “The results of antibiotic drug inhibiting cancer cell lines (cell viability analysis), U2OS” value (U-2OS; repeated experiment) was 50.07, the “The results of antibiotic drug inhibiting cancer cell lines (cell viability analysis), T24” value (T24; T24, repeated experiment) was 37.98 and the “The results of antibiotic drug inhibiting cancer cell lines (cell viability analysis), MKN-45” value ([3]; MKN-45) was 62.34. The “The results of antibiotic drug inhibiting cancer cell lines (cell viability analysis), HeLa” value ([4]; HeLa; repeated experiment) was 29.9, the “The results of antibiotic drug inhibiting cancer cell lines (cell viability analysis), PC-3” value ([5]; PC-3) was 37.99 and the “The results of antibiotic drug inhibiting cancer cell lines (cell viability analysis), C-33A” value ([6]; C-33A, repeated experiment) was 42.62. For the same compound, the “The results of antibiotic drug inhibiting cancer cell lines (cell viability analysis), LoVo” value [7] was 50.79, the “The results of antibiotic drug inhibiting cancer cell lines (cell viability analysis), AsPC-1” value (AsPC-1; AsPC-1, repeated experiment) was 35.28 and the “The results of antibiotic drug inhibiting cancer cell lines (cell viability analysis), TSGH-8301” value ([8]; TSGH-8301) was 46.61. For the same compound, the “The results of antibiotic drug inhibiting cancer cell lines (cell viability analysis), A375” value ([9]; A375) was 36.21, the “The results of antibiotic drug inhibiting cancer cell lines (cell viability analysis), H1650” value ([10]; H1650) was 41.75 and the viability [11] was 20.9%. For the same compound, the “The results of antibiotic drug inhibiting cancer cell lines (cell viability analysis), NIH-OVCAR-3” value (NIH: OVCAR-3; NIH-OVCAR-3, repeated experiment) was 52.49, the “The results of antibiotic drug inhibiting cancer cell lines (cell viability analysis), BCC” value ([12]; BCC, repeated experiment) was 31.25 and the “The results of antibiotic drug inhibiting cancer cell lines (cell viability analysis), A549” value ([13]; A549) was 24.2. The “The results of antibiotic drug inhibiting cancer cell lines (cell viability analysis), SAS” value ([14]; SAS, repeated experiment) was 36.08, the “The results of antibiotic drug inhibiting cancer cell lines (cell viability analysis), HepG2” value ([15]; HepG2) was 62.7 and the “The results of antibiotic drug inhibiting cancer cell lines (cell viability analysis), AGS” value ([16]; AGS) was 29.46. The “The results of antibiotic drug inhibiting cancer cell lines (cell viability analysis), 786-O” value ([17]; 786-O, repeated experiment) was 21.55, the “The results of antibiotic drug inhibiting cancer cell lines (cell viability analysis), BxPC-3” value (BxPC-3; BxPC-3, repeated experiment) was 36.62 and the “The results of antibiotic drug inhibiting cancer cell lines (cell viability analysis), MDA-MB231” value ([18]; MDA-MB231, repeated experiment) was 44.52.
Work on `CCCOc1ccc2nc(NC(=O)OC)[nH]c2c1` [Oxibendazole] yielded a viability at 10 µM [1] of 59.8%, a viability at 10 µM ([2]; read-out: The results of antibiotic drug inhibiting cancer cell lines (cell viability analysis), MCF-7, MCF-7) of 60.9% and a viability at 10 µM (TOV-21G) of 26.6%. The viability at 10 µM (U-2OS) was 46.6%, the viability at 10 µM (T24) was 38.1% and the viability at 10 µM ([3]; read-out: The results of antibiotic drug inhibiting cancer cell lines (cell viability analysis), MKN-45, MKN-45) was 65.6%. For the same compound, the viability at 10 µM ([4]; Homo sapiens, HeLa, 72 h, read-out: The results of antibiotic drug inhibiting cancer cell lines (cell viability analysis), HeLa; repeated experiment) was 29.3%, the viability at 10 µM ([5]; read-out: The results of antibiotic drug inhibiting cancer cell lines (cell viability analysis), PC-3, PC-3) was 38.9% and the viability at 10 µM ([6]; C-33-A) was 47.8%. The viability at 10 µM [7] was 53.4%, the viability at 10 µM (AsPC-1) was 33% and the viability at 10 µM ([8]; read-out: The results of antibiotic drug inhibiting cancer cell lines (cell viability analysis), TSGH-8301, TSGH-8301) was 48.6%. For the same compound, the viability at 10 µM ([9]; read-out: The results of antibiotic drug inhibiting cancer cell lines (cell viability analysis), A375, A375) was 31.8%, the viability at 10 µM ([10]; read-out: The results of antibiotic drug inhibiting cancer cell lines (cell viability analysis), H1650, H1650) was 41.3% and the viability [11] was 22.1%. It also gave a viability at 10 µM (NIH: OVCAR-3; OVCAR-3, 72 h) of 54.8%, a viability at 10 µM [12] of 34.3% and a viability at 10 µM ([13]; Homo sapiens, A549, 72 h, read-out: The results of antibiotic drug inhibiting cancer cell lines (cell viability analysis), A549, A549) of 24%. The viability at 10 µM [14] was 41.2%, the viability at 10 µM ([15]; read-out: The results of antibiotic drug inhibiting cancer cell lines (cell viability analysis), HepG2, HepG2) was 64.5% and the viability at 10 µM [16] was 37.6%. It also gave a viability at 10 µM [17] of 18.5%, a viability at 10 µM (BxPC-3; BXPC-3, 72 h) of 29.1% and a viability at 10 µM [18] of 48.9%.
`CC[C@H](C)C(=O)O[C@H]1CCC=C2C=C[C@H](C)[C@H](CC[C@@H]3C[C@@H](O)CC(=O)O3)[C@H]21` [Mevastatin] gave a viability at 10 µM ([1]; repeated experiment) of 97.7%, a viability at 10 µM ([2]; MCF-7, read-out: The results of antibiotic drug inhibiting cancer cell lines (cell viability analysis), MCF-7) of 77.8% and a viability at 10 µM (TOV-21G; TOV-21G, repeated experiment) of 44.7%. The viability at 10 µM (U-2OS; repeated experiment) was 85.3%, the viability at 10 µM (T24; T24, repeated experiment) was 67.5% and the viability at 10 µM ([3]; MKN-45, read-out: The results of antibiotic drug inhibiting cancer cell lines (cell viability analysis), MKN-45) was 92.7%. For the same compound, the viability at 10 µM ([4]; Homo sapiens, HeLa, 72 h, HeLa; repeated experiment; read-out: The results of antibiotic drug inhibiting cancer cell lines (cell viability analysis), HeLa) was 90.5%, the viability at 10 µM ([5]; PC-3, read-out: The results of antibiotic drug inhibiting cancer cell lines (cell viability analysis), PC-3) was 65.6% and the viability at 10 µM ([6]; C-33A, repeated experiment) was 102%. It also gave a viability at 10 µM [7] of 90.5%, a viability at 10 µM (AsPC-1; AsPC-1, repeated experiment) of 72.3% and a viability at 10 µM ([8]; TSGH-8301, read-out: The results of antibiotic drug inhibiting cancer cell lines (cell viability analysis), TSGH-8301) of 94.4%. The viability at 10 µM ([9]; A375, read-out: The results of antibiotic drug inhibiting cancer cell lines (cell viability analysis), A375) was 30.9%, the viability at 10 µM ([10]; H1650, read-out: The results of antibiotic drug inhibiting cancer cell lines (cell viability analysis), H1650) was 69.4% and the viability [11] was 73.6%. For the same compound, the viability at 10 µM (NIH: OVCAR-3; 72 h, NIH-OVCAR-3, repeated experiment) was 100%, the viability at 10 µM ([12]; BCC, repeated experiment) was 29.8% and the viability at 10 µM ([14]; SAS, repeated experiment) was 81%. The viability at 10 µM ([15]; HepG2, read-out: The results of antibiotic drug inhibiting cancer cell lines (cell viability analysis), HepG2) was 98.7%, the viability at 10 µM ([16]; AGS) was 71.2% and the viability at 10 µM ([17]; 786-O, repeated experiment) was 48%. The viability at 10 µM (BxPC-3; 72 h, BxPC-3, repeated experiment) was 83.6% and the viability at 10 µM ([18]; MDA-MB231, repeated experiment) was 56.1%.
